Experimental data from patent US20060135624A1, “Natural compound useful for treating diabetes, its preparation and use” (JINGYU LIANG ET AL, priority 2002, published 2006).

What was measured:
[1] = test system: mouse hyperglycemia induced by adrenalin; assay: Effect of Sequoyitol on mouse hyperglycemia induced by adrenalin; format: in vivo, Kunming mice; settings: Glibenclamide 10 mg/kg oral 7 days
Procedure: 1. Experimental Methods^[3] • 72 Mice were randomly divided into 6 groups, wherein 4 groups were orally administrated with 25, 50 and 100 mg/kg of Sequoyitol and 10 mg/kg of Glibenclamide according to 0,1 ml/10 g of body weight, respectively, and the normal group and modeling group were administrated with the same volum of distilled water. These administrations were conducted for continuous 7 days. The normal group was administrated with the same volum of physiological saline by injection, while other groups were administrated with 0.2 mg/kg of adrenalin by intra-abdominal injection. The blood-sugar levels were detected by glucose oxidase method after 30 minutes of administration. The livers of the mice were collected, and hepatic glycogen levels were detected by anthrone method.

[2] = test system: blood-sugar level of normal mice; assay: Effect of Sequoyitol on blood-sugar level of normal mice; format: in vivo, Kunming mice; settings: Glibenclamide 50 mg/kg oral 7 days
Procedure: 1. Experimental Method^[3] • 60 Mice were randomly divided into 5 groups, […] according to 0.1 ml/10 g of body weight, respectively, and the normal group was administrated with the same volum of the same volum of distilled water. These administrations were conducted for continuous 7 days. The blood-sugar levels were detected by glucose oxidase method.

[3] = test system: mouse hyperglycemia induced by alloxan; assay: Effects of Sequoyitol on mouse hyperglycemia induced by alloxan; format: in vivo, Kunming mice; settings: phenformine 75 mg/kg p.o. 7 days
Procedure: 1. Experimental Methods^[1,2] • Among 60 mice, 10 mice were randomly selected as normal group, and the residual mice were administrated with 65 mg/kg alloxan by caudal vein injection, modeled according to the method of documents, and divided into 5 groups according to blood-sugar values, wherein 4 groups were perorally administrated with 25, 50 and 100 mg/kg of Sequoyitol and 75 mg/kg of phenformine according to 0.1 ml/10 g of body weight, respectively, and the normal group and modeling group were administrated with the same volum of distilled water, separately. These administrations were conducted for continuous 7 days. The blood-sugar levels were detected by glucose oxidase method. The pancreatic glands of the mice were soaked in 10% formalin, embedded with paraffin, sliced, and dyed with HE dye.

[4] = test system: mouse hyperglycemia induced by Streptozocin; assay: Effect of Sequoyitol on mouse hyperglycemia induced by Streptozocin; format: in vivo, Kunming mice
Procedure: 1. Experimental Methods^[7,8] • Among 66 mice, 10 mice were randomly selected as normal group, and the residual mice were administrated with 160 mg/kg Streptozocin by vena caudalis injection, modeled according to methods of documents, and divided into 5 groups according to blood-sugar level, wherein 4 groups were perorally administrated with 25, 50 and 100 mg/kg of Sequoyitol and 75 mg/kg of phenformine according to 0.1 ml/10 g of body weight, respectively, and the normal group and modeling group were administrated with the same volum of distilled water. These administrations were conducted for continuous 18 days. The blood-sugar levels of the mice were separately measured at 6th and 12th day after the administration. At the 18th day, blood was collected by excising eyeballs, serum was separated, and the blood sugar level, insulin level, cholesterol content, triglyceride content, malonaldehyde content, and hepatocuprein activity of serum were measured; liver tissue was homogenated, and the malonaldehyde content and hepatocuprein activity of liver tissue were measured; and pancreatic gland was soaked in 10% formalin, embedded with paraffin, sliced, and dyed with HE.

[5] = test system: rat hyperglycemia induced by alloxan; assay: Effect of Sequoyitol on rat hyperglycemia induced by alloxan; format: in vivo, SD rats
Procedure: 1. Experimental Methods^[5,6] • 5 Rats were randomly selected as normal group, the other 55 rats were fasted for 14-16 hours, administrated with 30 mg/kg of Pentobarbital by intra-abdominal injection. After paralyzed, the rats were administrated with 48 mg/kg of alloxan by vena femoralis injection, modeled according to methods of documents, and divided into 5 groups according to blood-sugar level, wherein each group had 11 rats, and 4 groups were orally administrated with 25, 50 and 100 mg/kg of Sequoyitol and 75 mg/kg of phenformine according to 1 ml/100 g of body weight, respectively, and the normal group and modeling group were administrated with the same volum of distilled water. These administrations were conducted for continuous 18 days. The fasting blood-sugar levels of the rats were separately measured at 6th and 12th day after the administration. At the 18th day, blood was collected from arteria femoralis, and the blood sugar level, insulin level, cholesterol content, triglyceride content, malonaldehyde content, and hepatocuprein activity of serum were measured; liver tissue was homogenated, and the malonaldehyde content, and hepatocuprein activity of liver tissue were measured; and pancreatic gland was soaked in 10% formalin, embedded with paraffin, sliced, and dyed with HE.

[6] = test system: mouse hyperglycemia induced by alloxan; assay: Time-effect relation of Sequoyitol to mouse hyperglycemia induced by alloxan; format: in vivo, Kunming mice; settings: phenformine 75 mg/kg p.o. 7 days
Procedure: 1. Experimental Methods^[1,2] • Alloxan was administrated to each of 30 mice by caudal vein injection with a dose of 65 mg/kg, and the mice were modeled according to the method of documents, divided into 3 groups according to blood-sugar values, […] according to […] of body weight, and the modeling group was administrated with the same volum of distilled water, separately. These administrations were conducted for continuous 7 days, and the mice were fasted for 2 hours before the last administration, and their blood-sugar levels were detected by glucose oxidase method at 1 2, 3 and 5 hours after the last administration.

[7] = test system: mouse hyperglycemia induced by glucose; assay: Effect of Sequoyitol on mouse hyperglycemia induced by glucose; format: in vivo, Kunming mice; settings: phenformine 75 mg/kg oral 7 days; 30, 60, 90, 120 minutes after i.p. glucose
Procedure: 1. Experimental Method^[4] • 72 Mice were randomly divided into 6 groups, […] according to 0.1 ml/10 g of body weight, respectively, and the normal group and modeling group were administrated with the same volum of distilled water. These administrations were conducted for continuous 7 days. The normal group was administrated with the same volum of physiological saline by injection, while other groups were administrated with […] of glucose by intra-abdominal injection. After 30, 60, 90 and 120 minutes of administration, bloods were collected from venous plexus behind fossa orbitalis, the serums were separated, and the blood-sugar levels were separately detected by glucose oxidase method.

[8] = phenformine 75 mg/kg p.o. 18 days
[9] = phenformine 75 mg/kg oral 18 days

COc1ccc(Cl)cc1C(=O)NCCc1ccc(S(=O)(=O)NC(=O)NC2CCCCC2)cc1 [Glibenclamide, reference compound]
blood-sugar level decreased compared to the control group ([1]; 30 minutes after adrenalin 0.2 mg/kg i.p.): 40.1 mg/dL
hepatic glycogen level increased compared to the control group ([1]; adrenalin model): 1.28 mg/g of liver tissue
blood-sugar level decreased compared to the normal group [2]: 19.3 mg/dL

[H]/N=C(/N)N/C(=N/[H])NCCc1ccccc1 [phenformine, reference compound]
blood-sugar level decreased compared to the control group [3]: 152.8 mg/dL
number of pancreatic islands and number of islet cells (histopathologic examination) compared to the model group [3]: increased slightly
body weight of mice compared to the control group ([4]; phenformine 75 mg/kg p.o.): did not significantly change
activity of hepatocuprein in serum compared to the control group [4, 8]: did not significantly change
content of cholesterol in serum compared to the control group [4, 8]: did not significantly change
content of malonaldehyde in liver tissue compared to the control group [4, 8]: did not significantly change
content of triglyceride in serum compared to the control group [4, 8]: did not significantly change
hyalinization of interstitial small vessels (histopathologic examination) [4, 8]: not alleviated
number of pancreatic islands and number of cells in pancreatic islands (histopathologic examination) [4, 8]: slightly increased
serum insulin level compared to the control group [4, 8]: increased
Streptozocin-induced hyperglycemia compared to the control group ([4]; phenformine 75 mg/kg p.o., 12th day): significantly alleviated
body weight of rats compared to the control group ([5]; phenformine 75 mg/kg oral): did not significantly change
activity of hepatocuprein in liver tissue compared to the control group [5, 9]: did not significantly change
activity of hepatocuprein in serum compared to the control group [5, 9]: did not significantly change
content of cholesterol in serum compared to the control group [5, 9]: did not significantly change
content of malonaldehyde in liver tissue compared to the control group [5, 9]: decreased slightly
content of malonaldehyde in serum compared to the control group [5, 9]: decreased slightly
content of triglyceride in serum compared to the control group [5, 9]: did not significantly change
serum insulin level compared to the control group [5, 9]: increased
alloxan-induced hyperglycemia compared to the control group ([5]; phenformine 75 mg/kg oral, since the 6th day): highly significantly alleviated
blood-sugar level decreased compared to the control group ([6]; 1 hour after last administration): 163.1 mg/dL
blood-sugar level decreased compared to the control group ([6]; 2 hours after last administration): 159.3 mg/dL
blood-sugar level decreased compared to the control group ([6]; 3 hours after last administration): 104.2 mg/dL
blood-sugar level decreased compared to the control group ([6]; 5 hours after last administration): 56.6 mg/dL
glucose-induced hyperglycemia compared to the control group [7]: highly significantly alleviated
